Laboratory results reported in PubChem BioAssay (NCI).
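These data come from cells grown in 96-well plates and exposed to compound for 48 hours at five concentrations. At the TGI there is no net growth.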

Tests used:
Assay in all cases: inhibition of tumour cell growth, NCI panel, 48 h
NCI-H226 lung = system: NCI-H226 lung
COLO 205 colon = system: COLO 205 colon
RPMI-8226 leukemia = system: RPMI-8226 leukemia
SK-MEL-2 melanoma = system: SK-MEL-2 melanoma
OVCAR-8 ovarian = system: OVCAR-8 ovarian
DMS 273 small cell lung = system: DMS 273 small cell lung
LOX IMVI melanoma = system: LOX IMVI melanoma
SF-539 CNS = system: SF-539 CNS
SNB-75 CNS = system: SNB-75 CNS
NCI-H23 lung = system: NCI-H23 lung
KM20L2 colon = system: KM20L2 colon
HCT-116 colon = system: HCT-116 colon
OVCAR-4 ovarian = system: OVCAR-4 ovarian
HT29 colon = system: HT29 colon
ACHN renal = system: ACHN renal
UACC-62 melanoma = system: UACC-62 melanoma
HCT-15 colon = system: HCT-15 colon
HCC-2998 colon = system: HCC-2998 colon
SF-268 CNS = system: SF-268 CNS
OVCAR-5 ovarian = system: OVCAR-5 ovarian
CAKI-1 renal = system: CAKI-1 renal
TK-10 renal = system: TK-10 renal
U251 CNS = system: U251 CNS
SK-MEL-28 melanoma = system: SK-MEL-28 melanoma
786-0 renal = system: 786-0 renal
HOP-18 NSCLC = system: HOP-18 NSCLC
K-562 leukemia = system: K-562 leukemia
NCI-H460 lung = system: NCI-H460 lung
UACC-257 melanoma = system: UACC-257 melanoma
A498 renal = system: A498 renal
SK-OV-3 ovarian = system: SK-OV-3 ovarian
RXF 393 renal = system: RXF 393 renal
SNB-78 CNS = system: SNB-78 CNS
HL-60(TB) leukemia = system: HL-60(TB) leukemia
SNB-19 CNS = system: SNB-19 CNS
CCRF-CEM leukemia = system: CCRF-CEM leukemia
A549 NSCLC = system: A549 NSCLC
NCI-H522 lung = system: NCI-H522 lung
LXFL 529 NSCLC = system: LXFL 529 NSCLC
RXF-631 renal = system: RXF-631 renal
MALME-3M melanoma = system: MALME-3M melanoma
DLD-1 colon = system: DLD-1 colon
SF-295 CNS = system: SF-295 CNS
IGROV1 ovarian = system: IGROV1 ovarian
EKVX NSCLC = system: EKVX NSCLC
HOP-92 NSCLC = system: HOP-92 NSCLC
HOP-62 NSCLC = system: HOP-62 NSCLC
SK-MEL-5 melanoma = system: SK-MEL-5 melanoma
SW-620 colon = system: SW-620 colon
OVCAR-3 ovarian = system: OVCAR-3 ovarian
KM12 colon = system: KM12 colon
M14 melanoma = system: M14 melanoma
MOLT-4 leukemia = system: MOLT-4 leukemia
UO-31 renal = system: UO-31 renal
SN12C renal = system: SN12C renal
M19-MEL melanoma = system: M19-MEL melanoma
XF 498 CNS = system: XF 498 CNS

Measured: TGI

CC(=O)NNc1nc(C)c(C(/C=C/c2ccc(Cl)cc2)=N\NS(=O)(=O)c2ccc(C)cc2)s1
> 100 µM: all assays above
